Experimental data reported in patent US12371428B2 (Exelixis, Inc., priority 2019, dated 2025).
Like-named read-outs stand apart in the source and are kept apart here.

Columns and labels:
Assay type in all cases: cell-based
[1] = molecular target: AXL (phospho-AXL, Gas6-stimulated A-172 glioblastoma cells) (Homo sapiens (Human), UniProt P30530); assay: AXL autophosphorylation ELISA in A-172 cells (Example E); conditions: cellular activity, read-out: Axl IC50
How it was run: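 Phospho-AXL was measured by ELISA in lysates of Gas6-stimulated A-172 cells, starved 24 h in serum-free medium and exposed 1 h to an 8-point compound dilution at 0.3% DMSO.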

[2] = molecular target: Met (phospho-Met, HGF-stimulated PC-3 prostate cancer cells) (Homo sapiens (Human), UniProt P08581); assay: Met autophosphorylation ELISA in PC-3 cells (Example F); conditions: cellular activity, read-out: c-Met IC50
Sequence of Met (phospho-Met, HGF-stimulated PC-3 prostate cancer cells) (P08581 25-1390): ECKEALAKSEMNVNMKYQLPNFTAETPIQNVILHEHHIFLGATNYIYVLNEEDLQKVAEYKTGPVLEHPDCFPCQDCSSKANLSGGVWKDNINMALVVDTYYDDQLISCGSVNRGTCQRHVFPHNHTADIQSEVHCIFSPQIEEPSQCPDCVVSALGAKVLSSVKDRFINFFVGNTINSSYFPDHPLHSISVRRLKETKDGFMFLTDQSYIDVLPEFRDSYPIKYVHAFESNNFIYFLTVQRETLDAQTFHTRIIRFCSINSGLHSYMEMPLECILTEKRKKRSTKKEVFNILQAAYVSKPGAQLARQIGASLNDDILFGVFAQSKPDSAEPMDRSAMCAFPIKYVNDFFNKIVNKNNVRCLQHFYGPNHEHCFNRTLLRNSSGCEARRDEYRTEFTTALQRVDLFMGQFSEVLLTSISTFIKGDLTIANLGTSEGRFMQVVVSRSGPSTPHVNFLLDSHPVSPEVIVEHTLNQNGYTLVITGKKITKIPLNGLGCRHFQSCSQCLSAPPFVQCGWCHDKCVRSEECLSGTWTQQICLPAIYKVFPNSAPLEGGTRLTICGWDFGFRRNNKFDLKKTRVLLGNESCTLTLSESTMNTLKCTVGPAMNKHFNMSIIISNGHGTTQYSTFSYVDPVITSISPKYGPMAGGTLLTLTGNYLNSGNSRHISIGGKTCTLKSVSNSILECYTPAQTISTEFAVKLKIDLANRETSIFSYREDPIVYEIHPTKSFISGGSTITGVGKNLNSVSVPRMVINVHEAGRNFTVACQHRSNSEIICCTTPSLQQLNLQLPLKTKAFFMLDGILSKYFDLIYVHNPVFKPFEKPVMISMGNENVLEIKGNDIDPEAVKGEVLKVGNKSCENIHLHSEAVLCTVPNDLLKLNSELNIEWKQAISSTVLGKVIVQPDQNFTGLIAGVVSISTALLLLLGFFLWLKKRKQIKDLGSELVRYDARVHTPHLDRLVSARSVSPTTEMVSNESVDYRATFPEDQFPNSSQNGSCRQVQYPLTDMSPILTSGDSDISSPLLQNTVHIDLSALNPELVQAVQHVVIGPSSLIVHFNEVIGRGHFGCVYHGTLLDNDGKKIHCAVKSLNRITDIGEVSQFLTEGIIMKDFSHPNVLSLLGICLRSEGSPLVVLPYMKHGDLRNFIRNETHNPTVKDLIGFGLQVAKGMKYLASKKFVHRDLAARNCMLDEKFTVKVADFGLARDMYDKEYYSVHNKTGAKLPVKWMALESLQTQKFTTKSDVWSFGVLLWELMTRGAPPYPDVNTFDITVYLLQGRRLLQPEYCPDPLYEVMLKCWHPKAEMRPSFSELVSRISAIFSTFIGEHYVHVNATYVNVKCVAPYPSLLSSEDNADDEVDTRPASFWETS
How it was run: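 PC-3 cells, serum-starved 3 h, were treated with compounds (8-point dose curve, 0.3% DMSO final) for 1 h, then stimulated with 100 ng/mL recombinant human HGF for 10 min. Lysate phospho-Met (panTyr) was quantified by sandwich ELISA; IC50 from 4-parameter logistic fit.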

[3] = molecular target: KDR (phospho-KDR, VEGF165-stimulated HUVEC cells) (Homo sapiens (Human), UniProt P35968); assay: KDR autophosphorylation ELISA in HUVEC cells (Example G); conditions: cellular activity
Sequence of KDR (phospho-KDR, VEGF165-stimulated HUVEC cells) (P35968 20-1356): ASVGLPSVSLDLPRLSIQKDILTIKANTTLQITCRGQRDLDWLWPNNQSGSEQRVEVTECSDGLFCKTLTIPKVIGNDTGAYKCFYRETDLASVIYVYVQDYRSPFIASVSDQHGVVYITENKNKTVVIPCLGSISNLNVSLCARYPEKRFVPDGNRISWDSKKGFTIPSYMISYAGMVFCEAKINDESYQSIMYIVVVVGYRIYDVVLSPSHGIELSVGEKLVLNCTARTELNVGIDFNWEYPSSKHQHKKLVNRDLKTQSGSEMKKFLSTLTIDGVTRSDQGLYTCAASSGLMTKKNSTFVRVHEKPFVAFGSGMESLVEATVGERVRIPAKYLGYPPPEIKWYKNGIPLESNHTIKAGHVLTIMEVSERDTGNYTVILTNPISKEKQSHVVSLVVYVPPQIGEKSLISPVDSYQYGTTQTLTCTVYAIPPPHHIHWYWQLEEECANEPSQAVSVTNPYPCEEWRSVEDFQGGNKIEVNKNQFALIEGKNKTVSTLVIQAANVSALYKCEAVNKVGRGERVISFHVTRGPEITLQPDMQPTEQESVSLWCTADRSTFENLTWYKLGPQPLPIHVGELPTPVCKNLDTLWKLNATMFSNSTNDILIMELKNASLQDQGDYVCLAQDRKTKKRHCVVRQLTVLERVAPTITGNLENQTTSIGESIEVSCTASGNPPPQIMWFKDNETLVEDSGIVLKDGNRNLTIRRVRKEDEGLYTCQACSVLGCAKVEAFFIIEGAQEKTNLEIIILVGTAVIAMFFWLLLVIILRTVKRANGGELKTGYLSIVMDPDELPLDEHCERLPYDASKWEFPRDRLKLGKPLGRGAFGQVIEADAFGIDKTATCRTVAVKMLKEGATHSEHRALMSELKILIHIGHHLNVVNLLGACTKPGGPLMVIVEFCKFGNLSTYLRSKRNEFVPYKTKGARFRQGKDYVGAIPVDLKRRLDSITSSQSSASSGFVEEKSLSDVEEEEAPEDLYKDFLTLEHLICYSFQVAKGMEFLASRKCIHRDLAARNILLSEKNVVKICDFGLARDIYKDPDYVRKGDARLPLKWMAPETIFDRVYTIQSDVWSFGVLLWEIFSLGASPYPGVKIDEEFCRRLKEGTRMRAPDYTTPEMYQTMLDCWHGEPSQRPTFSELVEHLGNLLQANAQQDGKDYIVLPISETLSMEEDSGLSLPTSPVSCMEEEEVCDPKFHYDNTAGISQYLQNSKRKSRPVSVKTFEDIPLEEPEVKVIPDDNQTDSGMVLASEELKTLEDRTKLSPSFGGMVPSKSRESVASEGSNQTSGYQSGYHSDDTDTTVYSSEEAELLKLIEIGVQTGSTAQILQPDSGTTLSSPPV
How it was run: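 Inhibition of VEGF165-driven KDR autophosphorylation is measured in primary human umbilical vein endothelial cells after 24 h serum deprivation. Compound preincubation lasts 1 h before a 5-minute challenge with 100 ng/mL ligand, and phosphorylated receptor is then measured by ELISA in the lysates.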

[4] = molecular target: Mer (phospho-Mer, MERTK-transfected 293A cells) (Homo sapiens (Human), UniProt Q12866); assay: Mer autophosphorylation ELISA in transient transfected 293A cells (Example H); conditions: cellular activity
Sequence of Mer (phospho-Mer, MERTK-transfected 293A cells) (Q12866 21-999): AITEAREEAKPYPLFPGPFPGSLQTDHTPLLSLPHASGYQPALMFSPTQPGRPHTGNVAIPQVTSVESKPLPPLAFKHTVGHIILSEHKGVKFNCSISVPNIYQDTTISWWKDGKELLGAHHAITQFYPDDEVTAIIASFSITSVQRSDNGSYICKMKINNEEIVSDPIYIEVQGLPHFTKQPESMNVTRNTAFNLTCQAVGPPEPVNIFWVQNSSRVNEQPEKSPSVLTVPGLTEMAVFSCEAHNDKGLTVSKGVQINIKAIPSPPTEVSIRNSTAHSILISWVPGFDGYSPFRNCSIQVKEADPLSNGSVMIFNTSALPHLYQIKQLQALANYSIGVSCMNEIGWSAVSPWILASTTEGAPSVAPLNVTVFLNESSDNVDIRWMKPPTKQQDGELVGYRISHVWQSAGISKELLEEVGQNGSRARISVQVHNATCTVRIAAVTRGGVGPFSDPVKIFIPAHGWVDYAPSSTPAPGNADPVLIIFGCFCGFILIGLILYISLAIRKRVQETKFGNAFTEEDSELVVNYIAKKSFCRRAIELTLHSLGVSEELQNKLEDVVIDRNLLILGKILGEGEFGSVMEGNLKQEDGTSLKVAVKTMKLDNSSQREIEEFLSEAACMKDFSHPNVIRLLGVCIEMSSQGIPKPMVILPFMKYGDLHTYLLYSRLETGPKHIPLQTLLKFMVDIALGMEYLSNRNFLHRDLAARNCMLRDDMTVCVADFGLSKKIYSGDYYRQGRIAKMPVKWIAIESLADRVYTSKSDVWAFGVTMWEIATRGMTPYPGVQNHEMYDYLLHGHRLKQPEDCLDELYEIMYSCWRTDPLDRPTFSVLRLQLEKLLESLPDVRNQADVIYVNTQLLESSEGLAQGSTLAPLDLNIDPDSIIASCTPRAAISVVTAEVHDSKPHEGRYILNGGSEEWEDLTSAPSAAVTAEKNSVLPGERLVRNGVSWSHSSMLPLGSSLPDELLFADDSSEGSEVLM
How it was run: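 MERTK-transfected 293A; 8-pt dose, 1 h, serum-free, 0.3% DMSO. Cold lysis with orthovanadate and protease/phosphatase inhibitors. Phospho-Mer by DuoSet IC ELISA vs phospho-Mer standard. IC50: 4-PL fit; DMSO = 100%, reference inhibitor = 0%.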

[5] = AXL autophosphorylation ELISA in A-172 cells
[6] = Met autophosphorylation ELISA in PC-3 cells
[7] = KDR autophosphorylation ELISA in HUVEC cells
[8] = Mer autophosphorylation ELISA in transient transfected 293A cells

Sequence of AXL (phospho-AXL, Gas6-stimulated A-172 glioblastoma cells) (P30530 26-894): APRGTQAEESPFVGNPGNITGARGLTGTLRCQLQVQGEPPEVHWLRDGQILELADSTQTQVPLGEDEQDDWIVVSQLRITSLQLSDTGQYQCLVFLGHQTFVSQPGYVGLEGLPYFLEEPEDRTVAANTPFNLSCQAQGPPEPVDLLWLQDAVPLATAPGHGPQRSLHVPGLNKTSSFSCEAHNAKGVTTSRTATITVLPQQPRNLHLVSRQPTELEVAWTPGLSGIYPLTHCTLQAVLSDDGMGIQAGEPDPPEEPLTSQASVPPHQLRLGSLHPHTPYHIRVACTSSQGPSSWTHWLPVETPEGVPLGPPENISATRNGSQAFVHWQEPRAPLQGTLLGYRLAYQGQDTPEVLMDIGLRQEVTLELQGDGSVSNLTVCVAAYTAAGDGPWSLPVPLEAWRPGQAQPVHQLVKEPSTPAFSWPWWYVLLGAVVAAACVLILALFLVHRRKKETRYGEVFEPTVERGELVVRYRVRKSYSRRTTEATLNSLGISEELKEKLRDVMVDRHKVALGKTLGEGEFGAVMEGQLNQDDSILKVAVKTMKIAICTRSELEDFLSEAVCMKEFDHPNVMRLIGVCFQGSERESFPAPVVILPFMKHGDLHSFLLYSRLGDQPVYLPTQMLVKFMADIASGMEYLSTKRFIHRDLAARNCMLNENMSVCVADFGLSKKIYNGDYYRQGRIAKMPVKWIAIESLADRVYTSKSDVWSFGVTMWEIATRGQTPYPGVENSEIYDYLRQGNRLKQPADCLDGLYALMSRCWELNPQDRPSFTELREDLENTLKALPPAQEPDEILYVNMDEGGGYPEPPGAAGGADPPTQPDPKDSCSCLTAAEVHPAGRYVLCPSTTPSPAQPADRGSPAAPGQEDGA

Row | Compound | IC50 [1, 5] [nM] | IC50 [2, 6] [nM] | IC50 [3, 7] [nM] | IC50 [4, 8] [nM] | IC50 ([1]; A-172 cells) [nM] | IC50 ([2]; PC-3 cells) [nM] | IC50 ([3]; HUVEC cells) [nM] | IC50 ([4]; transfected 293A cells) [nM]
1 | COc1cc2nccc(Oc3ccc(NC(=O)c4c(C)c(C)nn(-c5ccc(F)cc5)c4=O)cc3)c2nc1OC [Compound 732, N-[4-[(6,7-dimethoxy-1,5-naphthyridin-4-yl)oxy]phenyl]-2-(4-fluorophenyl)-5,6-dimethyl-3-oxopyridazine-4-carboxamide] | < 100 | < 100 | > 300 | < 100 | – | – | – | –
2 | COCc1nc(C)c(-c2ccc(F)cc2)c(OC)c1C(=O)Nc1ccc(Oc2ccnc3cc(OC)c(OC)nc23)c(F)c1 [Compound 663, N-[4-[(6,7-dimethoxy-1,5-naphthyridin-4-yl)oxy]-3-fluorophenyl]-5-(4-fluorophenyl)-4-methoxy-2-(methoxymethyl)-6-methylpyridine-3-carboxamide] | < 100 | < 100 | > 300 | < 100 | – | – | – | –
3 | COc1cc2nccc(Oc3ccc(NC(=O)c4cn(CC(F)F)c(C)c(-c5ccc(F)cc5C)c4=O)cc3F)c2nc1OC [Compound 730, 1-(2,2-difluoroethyl)-N-[4-[(6,7-dimethoxy-1,5-naphthyridin-4-yl)oxy]-3-fluorophenyl]-5-(4-fluoro-2-methylphenyl)-6-methyl-4-oxopyridine-3-carboxamide] | < 100 | < 100 | 100 to 300 | < 100 | – | – | – | –
4 | COc1cc2nccc(Oc3ccc(NC(=O)c4c(C)c(F)cn(-c5ccc(F)cc5)c4=O)cc3F)c2nc1OC [Compound 664, N-[4-[(6,7-dimethoxy-1,5-naphthyridin-4-yl)oxy]-3-fluorophenyl]-5-fluoro-1-(4-fluorophenyl)-4-methyl-2-oxopyridine-3-carboxamide] | < 100 | < 100 | < 100 | < 100 | – | – | – | –
5 | COc1cc2nccc(Oc3ccc(NC(=O)c4nnc(C)c(-c5ccc(F)cc5)c4OC)cc3)c2nc1OC [Compound 534, N-[4-[(6,7-dimethoxy-1,5-naphthyridin-4-yl)oxy]phenyl]-5-(4-fluorophenyl)-4-methoxy-6-methylpyridazine-3-carboxamide] | < 100 | < 100 | < 100 | < 100 | – | – | – | –
6 | COc1ccc(-c2c(C)nc(C)c(C(=O)Nc3ccc(Oc4ccnc5cc(OC)cnc45)c(F)c3)c2O)c(OC)c1 [Compound 695, 5-(2,4-dimethoxyphenyl)-N-[3-fluoro-4-[(7-methoxy-1,5-naphthyridin-4-yl)oxy]phenyl]-4-hydroxy-2,6-dimethylpyridine-3-carboxamide] | > 300 | < 100 | < 100 | < 100 | – | – | – | –
7 | COCCOc1nc2c(Oc3ccc(NC(=O)c4c(C)nc(C)c(-c5ccc(F)cc5)c4O)cc3F)ccnc2cc1OC [Compound 207, N-[3-Fluoro-4-[[7-methoxy-6-(2-methoxyethoxy)-1,5-naphthyridin-4-yl]oxy]phenyl]-5-(4-fluorophenyl)-4-hydroxy-2,6-dimethylpyridine-3-carboxamide] | < 100 | < 100 | < 100 | < 100 | – | – | – | –
8 | COc1cc2nccc(Oc3ccc(NC(=O)c4cn5c(c(-c6ccc(F)cc6C)c4=O)COCC5)cc3F)c2nc1OC [Compound 766, N-[4-[(6,7-dimethoxy-1,5-naphthyridin-4-yl)oxy]-3-fluorophenyl]-9-(4-fluoro-2-methylphenyl)-8-oxo-3,4-dihydro-1H-pyrido[2,1-c][1,4]oxazine-7-carboxamide] | < 100 | < 100 | > 300 | < 100 | – | – | – | –
9 | COc1cc2nccc(Oc3ccc(NC(=O)c4c(C)c(C(C)=O)cn(-c5ccc(F)cc5)c4=O)cc3F)c2nc1OC [Compound 654, 5-acetyl-N-[4-[(6,7-dimethoxy-1,5-naphthyridin-4-yl)oxy]-3-fluorophenyl]-1-(4-fluorophenyl)-4-methyl-2-oxopyridine-3-carboxamide] | < 100 | < 100 | < 100 | < 100 | – | – | – | –
10 | COc1cc2nccc(Oc3ccc(NC(=O)c4c(CO)nc(C)c(-c5ccc(F)cc5)c4O)cc3F)c2nc1OC [Compound 652, N-[4-[(6,7-dimethoxy-1,5-naphthyridin-4-yl)oxy]-3-fluorophenyl]-5-(4-fluorophenyl)-4-hydroxy-2-(hydroxymethyl)-6-methylpyridine-3-carboxamide] | < 100 | < 100 | < 100 | < 100 | – | – | – | –

Continued, values first:

Row | IC50 [1, 5] [nM] | IC50 [2, 6] [nM] | IC50 [3, 7] [nM] | IC50 [4, 8] [nM] | IC50 ([1]; A-172 cells) [nM] | IC50 ([2]; PC-3 cells) [nM] | IC50 ([3]; HUVEC cells) [nM] | IC50 ([4]; transfected 293A cells) [nM] | Compound
11 | < 100 | < 100 | > 300 | < 100 | – | – | – | – | COc1cc2nccc(Oc3ccc(NC(=O)c4cn(CC(F)F)c(C)c(-c5ccc(F)cc5C)c4=O)cc3)c2nc1OC [Compound 722, 1-(2,2-difluoroethyl)-N-[4-[(6,7-dimethoxy-1,5-naphthyridin-4-yl)oxy]phenyl]-5-(4-fluoro-2-methylphenyl)-6-methyl-4-oxopyridine-3-carboxamide]
12 | < 100 | < 100 | > 300 | < 100 | – | – | – | – | COc1cc2nccc(Oc3ccc(NC(=O)c4c(OC)c(C(C)=O)cn(-c5ccc(F)cc5)c4=O)cc3)c2nc1OC [Compound 753, 5-acetyl-N-[4-[(6,7-dimethoxy-1,5-naphthyridin-4-yl)oxy]phenyl]-1-(4-fluorophenyl)-4-methoxy-2-oxopyridine-3-carboxamide]
13 | < 100 | < 100 | < 100 | < 100 | – | – | – | – | CNC(=O)c1cc2nccc(Oc3cc(F)c(NC(=O)c4ccc(C)n(-c5ccc(F)cc5)c4=O)cc3F)c2cc1C [Compound 726, 4-[2,5-difluoro-4-[[1-(4-fluorophenyl)-6-methyl-2-oxopyridine-3-carbonyl]amino]phenoxy]-N,6-dimethylquinoline-7-carboxamide]
14 | < 100 | < 100 | > 300 | < 100 | – | – | – | – | COc1cc2nccc(Oc3ccc(NC(=O)c4cc(C(C)=O)c(C)n(-c5ccc(F)cc5)c4=O)cc3)c2nc1OC [Compound 659, 5-acetyl-N-[4-[(6,7-dimethoxy-1,5-naphthyridin-4-yl)oxy]phenyl]-1-(4-fluorophenyl)-6-methyl-2-oxopyridine-3-carboxamide]
15 | 100 to 300 | < 100 | > 300 | < 100 | – | – | – | – | COc1cnc2c(Oc3ccc(NC(=O)c4c(C)c(C)nn(-c5ccc(F)cc5)c4=O)cc3F)ccnc2c1 [Compound 734, N-[3-fluoro-4-[(7-methoxy-1,5-naphthyridin-4-yl)oxy]phenyl]-2-(4-fluorophenyl)-5,6-dimethyl-3-oxopyridazine-4-carboxamide]
16 | < 100 | < 100 | 100 to 300 | < 100 | – | – | – | – | COc1cnc2c(Oc3ccc(NC(=O)c4c(C)c(Br)c(C)n(-c5ccc(F)cc5)c4=O)cc3)ccnc2c1 [Compound 312, 5-Bromo-1-(4-fluorophenyl)-N-[4-[(7-methoxy-1,5-naphthyridin-4-yl)oxy]phenyl]-4,6-dimethyl-2-oxopyridine-3-carboxamide]
17 | < 100 | < 100 | < 100 | < 100 | – | – | – | – | COc1cc2nccc(Oc3ccc(NC(=O)c4c(C)[nH]nc(-c5ccc(F)cc5)c4=O)cc3F)c2nc1OC [Compound 653, N-[4-[(6,7-dimethoxy-1,5-naphthyridin-4-yl)oxy]-3-fluorophenyl]-3-(4-fluorophenyl)-6-methyl-4-oxo-1H-pyridazine-5-carboxamide]
18 | < 100 | 100 to 300 | > 300 | < 100 | – | – | – | – | COc1cc2nccc(Oc3ccc(NC(=O)c4c5c(cn(-c6ccc(F)cc6)c4=O)C(=O)CCC5)cc3)c2nc1OC [Compound 360, N-[4-[(6,7-dimethoxy-1,5-naphthyridin-4-yl)oxy]phenyl]-2-(4-fluorophenyl)-3,8-dioxo-6,7-dihydro-5H-isoquinoline-4-carboxamide]
19 | < 100 | < 100 | < 100 | < 100 | – | – | – | – | COc1cc2nccc(Oc3ccc(NC(=O)c4nn(C(C)C)c(C)c(-c5ccc(F)cc5)c4=O)cc3F)c2cc1OC [Compound 575, N-[4-(6,7-Dimethoxyquinolin-4-yl)oxy-3-fluorophenyl]-5-(4-fluorophenyl)-6-methyl-4-oxo-1-propan-2-ylpyridazine-3-carboxamide]
20 | – | – | – | – | < 100 | < 100 | 100 to 300 | < 100 | COc1cc2nccc(Oc3ccc(NC(=O)c4c(C)n(C)c(C)c(-c5ccc(F)c(C)c5)c4=O)cc3F)c2nc1OC [Compound 821, N-[4-[(6,7-dimethoxy-1,5-naphthyridin-4-yl)oxy]-3-fluorophenyl]-5-(4-fluoro-3-methylphenyl)-1,2,6-trimethyl-4-oxopyridine-3-carboxamide]
